# Experimental data published in ChEMBL document CHEMBL2434900, “Synthesis of novel benzo[4,5]thiazolo[1,2-a]pyrimidine-3-carboxylate derivatives and biological evaluation as potential anticancer agents” (Eur J Med Chem, 2013).
# What was measured:
# Format in all cases: functional, cell-based
# A549 = assay: Cytotoxicity against human A549 cells by MTT assay
# MCF7 = assay: Cytotoxicity against human MCF7 cells by MTT assay
# HeLa = assay: Cytotoxicity against human HeLa cells by MTT assay
# MDA-MB-231 = assay: Cytotoxicity against human MDA-MB-231 cells by MTT assay
Compound,IC50 (A549),IC50 (MCF7),IC50 (HeLa),IC50 (MDA-MB-231)
CC1=C(C(=O)NCCC(=O)N2CCN(c3ccc([N+](=O)[O-])cc3)CC2)C(c2ccccc2)N2C(=N1)Sc1ccccc12 (centres undefined),11.2 µM,13.8 µM,25.7 µM,–
CC1=C(C(=O)N2CCCCC2)C(c2ccccc2)N2C(=N1)Sc1ccccc12 (centres undefined),–,11.7 µM,–,5.01 µM
CC1=C(C(=O)N2CCN(C)CC2)C(c2ccccc2)N2C(=N1)Sc1ccccc12 (centres undefined),–,0.58 µM,–,1.58 µM
CC1=C(C(=O)N2CCOCC2)C(c2ccccc2)N2C(=N1)Sc1ccccc12 (centres undefined),–,10.1 µM,–,11.1 µM
CC1=C(C(=O)N2CCN(c3ccccc3)CC2)C(c2ccccc2)N2C(=N1)Sc1ccccc12 (centres undefined),–,77.6 µM,–,31.6 µM
CC1=C(C(=O)N2CCN(c3ccc([N+](=O)[O-])cc3)CC2)C(c2ccccc2)N2C(=N1)Sc1ccccc12 (centres undefined),–,29 µM,–,47.2 µM
CC1=C(C(=O)NCCC(=O)N2CCCCC2)C(c2ccccc2)N2C(=N1)Sc1ccccc12 (centres undefined),18.1 µM,16.8 µM,11.4 µM,21.7 µM
COc1cccc2c1C(=O)c1c(O)c3c(c(O)c1C2=O)C[C@@](O)(C(=O)CO)C[C@@H]3O[C@H]1C[C@H](N)[C@H](O)[C@H](C)O1 [DOXORUBICIN],–,1.05 µM,–,0.501 µM
